Reference: PubChem BioAssay AID463206 (Broad Institute, 2010)
Calls of active or inactive are those of the source.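 How the source made its calls: active means caspase luminescence falls with dose and the half-maximal concentration AC50 from the fitted curve is at or below a set limit; inconclusive means flat fit at 30 to 70% signal loss, or invalid fit; inactive means AC50 above the limit, or signal rises instead.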

Each molecule was assayed on INS-1E cytokine-induced caspase-3/7, Caspase-Glo luminescence, 48 h (assay: inhibitors of cytokine-induced caspase-3/7 activity, dose response, orthogonal assay for beta-cell apoptosis protection project, INS-1E rat cells, luminescence (AID 463206)).

SMILES | AC50
Cc1ccc(NC(=S)N/N=C/c2ccc([N+](=O)[O-])s2)cc1 | > 26 µM (inactive)
CSc1ccccc1OCc1cc(C(=O)N2CCc3c(Cl)cccc3C2)no1 | > 26 µM (inactive)
CCN(CC)c1ccc(/C=N/NC(=O)Cc2cccs2)c(O)c1 | > 26 µM (inactive)
O=[N+]([O-])c1c(Nc2ccccn2)cc(Cl)c2nonc12 | > 26 µM (inactive)
CC(=O)Oc1c(C)cc(Cl)cc1C(=O)Nc1ccc([N+](=O)[O-])cc1Cl | > 26 µM (inactive)
O=[N+]([O-])c1cc(C(F)(F)F)ccc1NCCCCNS(=O)(=O)c1ccc(Cl)cc1 | > 26 µM (inactive)
O=c1[nH]c(=O)n(Cc2ccco2)c2c1C(C(F)(F)F)(C(F)(F)F)N=C(c1ccc(F)cc1)N2 | > 26 µM (inactive)
Cn1c(SCC(=O)N/N=C/c2ccc([N+](=O)[O-])s2)nnc1-c1ccc(Cl)cc1 | > 26 µM (inactive)
CC(NC(=S)NC1CCCCC1)c1ccc(C(C)(C)C)cc1 (configuration not stated) | > 26 µM (inactive)
O=C1CSC(c2ccccc2F)N1 (configuration not stated) | > 26 µM (inactive)
COc1ccccc1NC(=O)c1cc2cc(Br)ccc2cc1O | > 26 µM (inactive)
Cc1nc2cc(-c3ccccc3)sc2c(=O)n1N | > 26 µM (inactive)
CC1CCC(C(C)C)C(OC(=O)Cn2c(-c3ccc(F)cc3)[n+](C)c3ccccc32)C1 (configuration not stated) | > 26 µM (inactive)
O=C1C(=O)c2c(C(=O)c3ccccc3)coc2-c2ccccc21 | > 26 µM (inactive)
CC1(C)CC(=O)C2=C(C1)OC1=C(C(=O)CC(C)(C)C1)C2c1ccc(O)cc1O | > 26 µM (inactive)
O=[N+]([O-])c1ccc(NC(=S)NCCc2ccc(F)cc2)cc1 | > 26 µM (inactive)
COc1ccccc1NCC(=O)N1CCN(S(=O)(=O)c2ccccc2)CC1 | > 26 µM (inactive)
Cc1sc2ncnc(NCC(O)c3ccc([N+](=O)[O-])cc3)c2c1C (configuration not stated) | > 26 µM (inactive)
CCCC12C(=O)C(C)(C(c3ccccc3)=C1c1ccccc1)C1C(=O)N(c3ccc(C)cc3)C(=O)C12 (configuration not stated) | > 26 µM (inactive)
O=c1c2c3c(sc2n(CCN2CCCCC2)c(=O)n1Cc1ccco1)CCCCC3 | 25.4 µM
CSc1nc(N)nc2c1ncn2CC(=O)N1CCN(Cc2c(C)cc(C)cc2C)CC1 | > 26 µM (inactive)
CC(C)(C)c1cc(C(=O)N/N=C/c2ccccc2O)n(-c2ccccc2)n1 | > 26 µM (inactive)
Oc1ccc(N=Nc2ccc3c(c2)OCCO3)c2ncccc12 | > 26 µM (inactive)

SMILES | AC50
Cc1ccc(Cl)cc1NC1=C/C(=N\S(=O)(=O)c2cccs2)c2ccccc2C1=O | > 26 µM (inactive)
COc1ccc(-[n+]2c(C)cc(/C=C3\Sc4ccccc4N3C)cc2C)cc1 | > 26 µM (inactive)
COc1cc(OC)c2cc(C(=O)N/N=C/c3ccccc3O)[nH]c2c1 | > 26 µM (inactive)
CCOc1ccc(S(=O)(=O)N(C(=O)c2ccco2)c2cc3sc(=O)oc3c3ccccc23)cc1 | > 26 µM (inactive)
C/C(=N\NC(=O)COc1ccccc1-c1ccccc1)c1ccc(O)cc1O | > 26 µM (inactive)
CN(C)c1cc[n+](CC(=O)c2ccc(-c3ccccc3)cc2)cc1 | > 26 µM (inactive)
COc1ccc2c(c1)N(C)/C(=C/c1cccc[n+]1C)S2 | > 26 µM (inactive)
CCN(CC)C(=O)C1CCCN(C(=S)Nc2cccc3ccccc23)C1 (configuration not stated) | > 26 µM (inactive)
O=c1cc(N2CCN(c3cccc(Cl)c3)CC2)[nH]c(=O)n1C1CCCCC1 | > 26 µM (inactive)
FC(F)(F)c1ccc(CN2C[C@@H]3C(c4ccc(C(F)(F)F)cc4)C4(c5cccnc5)CC3(C4)[C@H]2c2ccccc2)cc1 (some centres not stated) | > 26 µM (inactive)
COc1cccc(C(=O)N/N=C(/c2ccccc2)c2ccccn2)c1 | > 26 µM (inactive)
Cc1nc(C(F)(F)F)c(C(=O)N/N=C(\N)c2ccccn2)s1 | > 26 µM (inactive)
N#CC(C#N)=C(Nc1ccc(F)cc1)SCc1cccc(F)c1 | > 26 µM (inactive)
CC(=O)N1CCCc2cc(S(=O)(=O)N3CCCC(C(=O)N4CCN(c5cccc(Cl)c5)CC4)C3)ccc21 (configuration not stated) | > 26 µM (inactive)
N#CC(C#N)=C(Nc1ccc(F)cc1)SCc1cccc(Br)c1 | > 26 µM (inactive)
O=C(OCn1ncc(Cl)c(Cl)c1=O)c1ccc(F)cc1 | > 26 µM (inactive)
COc1cccc(/C=N/NC(=O)c2cc3c(OC)ccc(OC)c3[nH]2)c1O | > 26 µM (inactive)
CC1CCC(C(C)C)C(OC(=O)Cn2c(-c3ccccc3)[n+](C)c3ccccc32)C1 (configuration not stated) | > 26 µM (inactive)
c1ccc(N2CCN(c3nc(-c4ccccn4)nc4ccccc34)CC2)cc1 | > 26 µM (inactive)
Cc1ccc([N+](=O)[O-])cc1N(CC(=O)Nc1ccc(S(=O)(=O)Nc2cccc(C(F)(F)F)c2)cc1)S(C)(=O)=O | > 26 µM (inactive)
O=C(CCCN1C(=O)/C(=C/c2ccccc2)SC1=S)NCCCn1ccnc1 | > 26 µM (inactive)
COc1cccc(/C=N/Nc2ccc([N+](=O)[O-])cn2)c1O | > 26 µM (inactive)
Brc1ccc(-[n+]2c(-c3ccccc3)cc(-c3ccccc3)cc2-c2ccccc2)cc1 | > 26 µM (inactive)

SMILES | AC50
CCOc1ccc(C(=O)N/N=C(\c2ccccc2)c2ccccn2)cc1 | > 26 µM (inactive)
C/C(=N\Nc1nc(C)cc(-c2ccccc2)n1)c1ccc(O)cc1 | > 26 µM (inactive)
CC1=NN(c2nc3ccccc3[nH]2)C(=O)/C1=C/N(C)C | > 26 µM (inactive)
c1ccc(-c2nc3nonc3nc2-c2ccccc2)cc1 | > 26 µM (inactive)
Oc1c(Cl)cc(Cl)cc1/C=N/Nc1ncc(Br)cn1 | > 26 µM (inactive)
CC(=O)c1c(C)oc2c1C(=O)c1ccccc1C2=O | > 26 µM (inactive)
Oc1ccc(-[n+]2c(-c3ccccc3)cc(-c3ccccc3)cc2-c2ccccc2)cc1 | > 26 µM (inactive)
Oc1ccc(Br)cc1-c1cc(-c2ccc(Cl)cc2)n[nH]1 | > 26 µM (inactive)
CCCCCc1ccc(-c2cn(CN3C(=O)c4ccccc4C3=O)nn2)cc1 | > 26 µM (inactive)
COc1ccc(NS(=O)(=O)c2cccc(NC(=O)c3ccc(S(=O)(=O)N4CCCCCC4)cc3)c2)cc1 | > 26 µM (inactive)
Cc1cc(S(=O)(=O)NCc2ccncc2)c(C)cc1Br | > 26 µM (inactive)
O=C(N/N=C/c1cc(Br)c(O)c(Br)c1O)c1ccc2c(c1)OCCO2 | > 26 µM (inactive)
C[n+]1c2n(c3ccccc31)N=C(c1ccc(-c3ccccc3)cc1)CS2 | > 26 µM (inactive)
C[C@@H]1CN([C@H](C)CO)C(=O)c2cc(NC(=O)Nc3ccc(C(F)(F)F)cc3)ccc2O[C@H]1CN(C)S(=O)(=O)c1cccs1 | > 26 µM (inactive)
CCS(=O)(=O)c1ncc(Cl)c(C(=O)Nc2ccccc2OC)n1 | > 26 µM (inactive)
Oc1ccc(CN2CCc3ccccc3C2)c2cccnc12 | > 26 µM (inactive)
Cc1cc(C)n(-c2nc(NCCO)c3c4c(sc3n2)CCCC4)n1 | > 26 µM (inactive)
COc1cc2cc(C(=O)N3CCOCC3)cc(-c3ccc(C)cc3)c2cc1OC | > 26 µM (inactive)
Cc1ccc(NC(=O)C2CCN(S(=O)(=O)c3ccc4c(c3)NC(=O)C(C)S4)CC2)cc1Cl (configuration not stated) | > 26 µM (inactive)
c1ccc(-c2csc3ncnc(NCC4COc5ccccc5O4)c23)cc1 (configuration not stated) | > 26 µM (inactive)
CCCCCCOC(=O)C[N+](C)(C)CCOC1CC2CCC1(C)C2(C)C (configuration not stated) | > 26 µM (inactive)
Cc1ccc(NC(=O)C2=C(c3ccccc3)S(=O)(=O)CCS2(=O)=O)cc1 | > 26 µM (inactive)
Cc1ccc(Nc2cc(C)nn2-c2nc(C)cc(=O)[nH]2)cc1 | > 26 µM (inactive)

SMILES | AC50
C=CCC1(CC=C)CCCN1C(=O)c1cc(COc2ccc(C)nc2)on1 | > 26 µM (inactive)
Cc1cccnc1CN1CCN(C(=O)c2cc(COc3ccc4ncccc4c3)on2)CC1 | > 26 µM (inactive)
Cc1cc(N/N=C/c2ccc(F)cc2)nc(-n2nc(C)cc2C)n1 | > 26 µM (inactive)
C/C(=N/NC(=O)c1ccc(C(C)(C)C)cc1)c1ccccn1 | > 26 µM (inactive)
Cc1c(Cl)c([N+](=O)[O-])nn1Cc1ccc(C(=O)N/N=C\c2cc(Cl)ccc2O)o1 | > 26 µM (inactive)
O=C(CNc1ccc(F)cc1)N/N=C/c1c(O)ccc2ccccc12 | > 26 µM (inactive)
O=C(Oc1cccc2cccnc12)c1cccc(N2C(=O)C3C4CCC(C4)C3C2=O)c1 (configuration not stated) | > 26 µM (inactive)
COc1ccc(CCNc2ccc(C(CC(N)=O)NC(=O)c3ccc(Br)cc3)cc2[N+](=O)[O-])cc1 (configuration not stated) | > 26 µM (inactive)
CCOC(=O)c1sc(NC(=O)c2c(C)nn(Cc3ccccc3)c2C)cc1C | > 26 µM (inactive)
COC(=O)c1c(C)oc2ccc(N(C(=O)c3ccncc3)S(=O)(=O)c3ccc(C)cc3C)cc12 | > 26 µM (inactive)
CCOc1ccc(OCC)c(S(=O)(=O)NCCOC23CC4CC(CC(C4)C2)C3)c1 | 15.9 µM
CCN1CCN(c2ccc(S(=O)(=O)N3CCCCC3)cc2NC(=O)c2ccc([N+](=O)[O-])o2)CC1 | > 26 µM (inactive)
O=C(N/N=C/c1ccccc1O)/C(=C/c1ccccc1)CCO | > 26 µM (inactive)
COc1ccc2cc1Oc1ccc(cc1)C[C@H]1c3c(cc(OC)c4c3Oc3c(ccc5c3[C@H](C2)N(C)CC5)O4)CCN1C | > 26 µM (inactive)
O=C(NC1=C(Nc2ccc(F)cc2)C(=O)c2ccccc2C1=O)c1ccc(Cl)cc1 | > 26 µM (inactive)
Nc1nc2ccccc2n1/N=C/c1ccc([N+](=O)[O-])s1 | > 26 µM (inactive)
Cc1cc(OCc2nc(-c3ccc(NC(=O)c4cccnc4)cc3)no2)ccc1Cl | > 26 µM (inactive)
COc1cc(CNC(C)c2ccccc2)cc(Br)c1OCc1ccc(F)cc1 (configuration not stated) | > 26 µM (inactive)
O=S(=O)(c1ccc(F)c(F)c1F)N1CCN(c2ncnc3sccc23)CC1 | > 26 µM (inactive)
Cc1cccc(NC(=O)Cn2c(/C=C/c3ccccc3)nc3ccccc32)c1 | > 26 µM (inactive)
COc1ccc(OCc2n(CC(=O)OC3CC(C)CCC3C(C)C)c3ccccc3[n+]2C)cc1 (configuration not stated) | > 26 µM (inactive)
Cc1ccc(C(=O)C[n+]2cc(-c3ccc(C)cc3)n3c2CCCCC3)cc1 | > 26 µM (inactive)
COc1ccc(C(=O)CSc2n[nH]c(=O)n2Cc2ccco2)cc1 | > 26 µM (inactive)
